Results on one molecule are retold here after patent US20040198788A1, “Medicinal compositions containing angiotensin II receptor antagonist” (SANKYO COMPANY, LIMITED, priority 2001, published 2004).

For the experiment, the system named is Watanabe heritable hyperlipidemic (WHHL) rabbits. Description: Determination of aortic lesioned area. The note with it: olmesartan 0.5 mg/kg, compound A 20 mg/kg. The format is in vivo, rabbit. The method, then: Determination of Aortic Lesioned Area Watanabe heritable hyperlipidemic (WHHL) rabbits aged 16 weeks were divided in 4 groups consisting of 12 or 13 animals each: control group (5% gum arabic solution), olmesartan (0.5 mg/kg) group, compound A (20 mg/kg) group, and combination group of olmesartan (0.5 mg/kg) and compound A (20 mg/kg). These test agents were orally administered for 24 weeks. After the 24th week, the rabbits were sacrificed and their aorta were isolated to determine the aortic lumen area and arteriosclerotic lesion area in the aortic lumen. Then the percentage of arteriosclerotic lesion area in the aortic lumen [arteriosclerotic lesion area in the aortic lumen/the aortic lumen area]×100 (%)] was calculated.

Take `CCCCCCCCN1CCc2c(C)c(CC(=O)O)c(C)c(NC(=O)C(C)(C)C)c21.O=S(=O)(O)O` [compound A, N-(1-octyl-5-carboxymethyl-4,6-dimethylindolin-7-yl)-2,2-dimethylpropaneamide sulfate]: the “lesion area in % (percentage of arteriosclerotic lesion area in the aortic lumen)” value (WHHL rabbits aged 16 weeks, oral administration for 24 weeks, control group 59.7) was 59.0%. For the same molecule, the “arteriosclerotic lesion area compared with control / single-administration groups (in words)” value (WHHL rabbits, oral, 24 weeks) is “little affected”.
